Measured values as given in US20190090524A1, “NOVEL COMPOSITIONS FOR FLAVOR ENHANCEMENT” (INTERNATIONAL FLAVORS & FRAGRANCES INC., priority 2016, published 2019).

Assays:
Format in all cases: in vivo
[1] = Carbonation effect intensity in carbonated water (7.2 g/L CO2), panel, scale 0 to 10; conditions: mean; 2.5 ppt in carbonated water 7.2 g/L CO2; scale 0 to 10 (0=none, 4=medium, 7=high, 10=extremely high); p<0.01 vs carbonated water alone
Description: (A) A β-sitosterol solution (prepared in Example I) was added to the carbonated water (7.2 g/L CO2) (prepared in Example I) to yield a final concentration of 2.5 ppt.
The carbonation effect of the obtained sample was evaluated and compared by a panel with the carbonated water using an intensity scale of 0 to 10, where 0=none, 4=medium, 7=high and 10=extremely high. The intensity of carbonation effect was rated. Mean (“Carbonation Intensity”) and standard error of the mean (“SE”, +) were obtained.

[2] = Flavor of β-sitosterol solutions in water; conditions: 2.5 to 600 ppb
[3] = Alcohol impression in alcohol-free beer, panel comparison with alcohol solutions; conditions: 25 ppb in Brahma 0.0% alcohol free beer
Description: 1. […] 2. Alcohol solutions containing varying amounts of ethanol (Alcohol by Volume, “ABV”) were prepared as follows: • Alcohol solutions at 1% ABV, 2% ABV, 2.5% ABV, 3% ABV and 5% ABV were prepared by adding varying amounts of ethanol in Brahma 0.0% alcohol-free beer (Anheuser-Busch InBev); • Alcohol solution at 6% ABV was prepared by adding ethanol in water; and • Alcohol solutions with ABV ranging from 8.75% to 50% were prepared by diluting CAPTAIN MORGAN® Original Spiced Rum (35% ABV) (Diageo North America Inc.) in varying amounts of water. 3. Carbonated water containing carbon dioxide at 6.0, 7.2 and 8.0 g/L, respectively, were prepared.
A β-sitosterol solution (prepared in Example I) was added in Brahma 0.0% alcohol free beer to yield a final concentration of 25 ppb. The alcohol impression of the obtained sample was evaluated and compared by a panel with alcohol solutions at 1% ABV, 2% ABV, 2.5% ABV, 3% ABV and 5% ABV (prepared in Example I). 3-Sitosterol (25 ppb) provided an equal level of alcohol impression as the alcohol solution at 2.5% ABV.

[4] = Carbonation sensation in carbonated water (7.2 g/L CO2) with 0.1 to 50 ppt β-sitosterol
Description: (B) A series of β-sitosterol solutions (prepared in Example I) were added to the carbonated water (7.2 g/L CO2) (prepared in Example I) to yield final concentrations ranging from 0.1 to 50 ppt. The carbonation sensation of the obtained samples containing different amounts of […] was evaluated.

[5] = Carbonation sensation in carbonated water of 6.0, 7.2 and 8.0 g/L CO2 with 2.5 ppt β-sitosterol; conditions: 2.5 ppt in carbonated water of 6.0, 7.2 and 8.0 g/L CO2, all samples
Description: (C) A β-sitosterol solution (prepared in Example I) was added to carbonated water of 6.0, 7.2 and 8.0 g/L CO2 (prepared in Example I), respectively, to yield a final concentration of 2.5 ppt. The carbonation sensation of the obtained samples was evaluated.

[6] = Alcohol sensation intensity in 6% ABV solution, panel, scale 0 to 10; conditions: mean; 100 ppb in solution of 6% ABV; scale 0 to 10 (0=none, 4=medium, 7=high, 10=extremely high); p<0.01 vs 6% ABV alone
Description: (A) A β-sitosterol solution (prepared in Example I) was added to the alcohol solution at 6% ABV (prepared in Example I) to yield a final concentration of 100 ppb.
The alcohol sensation of the obtained sample was evaluated and compared by a panel with the alcohol solution at 6% ABV using an intensity scale of 0 to 10, where 0=none, 4=medium, 7=high and 10=extremely high. The intensity of alcohol sensation was rated. Mean (“Alcohol Intensity”) and standard error of the mean (“SE”, +) were obtained.

[7] = Alcohol sensation of alcohol solutions with 25 ppb β-sitosterol, panel comparison with higher ABV solutions
Description: (C) A β-sitosterol solution (prepared in Example I) was added to alcohol solutions at 8.75% ABV, 17.5% ABV and 21.75% ABV (prepared in Example I), respectively, to yield a final concentration of 25 ppb. The alcohol sensation of the obtained samples was evaluated and compared by a panel with alcohol solutions at higher levels of ABV, respectively.

[8] = Alcohol sensation in 17.5% ABV solution with 3 to 500 ppb β-sitosterol
Description: (B) A series of β-sitosterol solutions (prepared in Example I) were added to the alcohol solution at 17.5% ABV (prepared in Example I) to yield final concentrations of β-sitosterol ranging from 3 to 500 ppb. The alcohol sensation of the obtained samples containing different amounts of β-sitosterol was evaluated.

CC[C@H](CC[C@@H](C)[C@H]1CC[C@H]2[C@@H]3CC=C4C[C@@H](O)CC[C@]4(C)[C@H]3CC[C@]12C)C(C)C [β-sitosterol, (3S,8S,9S,10R,13R,14S,17R)-17-((1R,4R)-4-ethyl-1,5-dimethyl-hexyl)-10,13-dimethyl-2,3,4,7,8,9,10,11,12,13,14,15,16,17-tetradecahydro-1H-cyclopenta[a]phenanthren-3-ol]
Carbonation Intensity [1]: 7.19
flavor of β-sitosterol itself [2]: no noticeable flavor
alcohol impression, equal level as alcohol solution [3]: 2.5 % ABV
carbonation perception ([4]; 0.1 ppt in carbonated water 7.2 g/L CO2): slight increase in carbonation perception
carbonation perception ([4]; 2.5 ppt in carbonated water 7.2 g/L CO2): clear increase in carbonation perception
enhancement of carbonation effect ([4]; 5 ppt or higher in carbonated water 7.2 g/L CO2): reached a stable plateau
carbonation sensation [5]: provided enhancement of carbonation sensation
Alcohol Intensity [6]: 7.21
alcohol sensation at the level of an alcohol solution ([7]; 25 ppb in alcohol solution at 8.75% ABV): 10 % ABV
alcohol sensation at the level of an alcohol solution ([7]; 25 ppb in alcohol solution at 17.5% ABV): 22.5 % ABV
alcohol sensation at the level of an alcohol solution ([7]; 25 ppb in alcohol solution at 21.75% ABV): 35 % ABV
alcohol sensation ([8]; 3 ppb in alcohol solution at 17.5% ABV): slight but noticeable increase in alcohol sensation
enhancement of alcohol sensation ([8]; 200 ppb in alcohol solution at 17.5% ABV): reached a stable plateau
alcohol sensation ([8]; at a higher concentration than 3 ppb in alcohol solution at 17.5% ABV): clear increase of alcohol intensity
